Values joined by “and” are separate entries in the source; they are usually repeats but may differ in a detail not shown here. Equal entries are not always repeated.
Experiments:
[1] = test system: Bacillus cereus; experiment: Agar plate disc-diffusion, antibacterial inhibition zone; format: cell-based; conditions: nutrient agar, 37° C., 48 hours
Protocol: (§1) The agar plate disc-diffusion method was applied. Sterilized filter papers (6 mm in diameter) were wetted with 10 μL of a solution of N′-(2-(5-(4-chlorophenyl)-1,3,4-oxadiazol-2-ylthio)acetoxy)benzimidamide (3) to be tested, containing 10 mg/mL in DMSO, and the discs were allowed to air dry. The discs were then placed onto the surface of agar plates (nutrient agar for bacteria and Sabouraud's dextrose agar for fungi) seeded with the test organism. Each plate contained 15 mL of the agar medium, previously seeded with 0.2 mL of the broth culture of each organism pregrown for 18 hours. The plates were incubated at 37° C. for 48 hours and 72 hours for fungi. The inhibition zones were measured in mm. Discs impregnated with DMSO were used as a control, and their inhibition zone was subtracted from the tested compound's actual inhibition zone.

[2] = test system: Escherichia coli; experiment: as above; format: cell-based; conditions: nutrient agar, 37° C., 48 hours
Protocol: as §1

[3] = test system: Pseudomonas aeruginosa; experiment: as above; format: cell-based; conditions: nutrient agar, 37° C., 48 hours
Protocol: as §1

[4] = test system: Staphylococcus aureus; experiment: as above; format: cell-based; conditions: nutrient agar, 37° C., 48 hours
Protocol: as §1

[5] = test system: Aspergillus flavus; experiment: Agar plate disc-diffusion, antifungal inhibition zone; format: cell-based; conditions: Sabouraud's dextrose agar, 37° C., 72 hours
Protocol: as §1

[6] = test system: Chrysosporium keratinophilum; experiment: as above; format: cell-based; conditions: Sabouraud's dextrose agar, 37° C., 72 hours
Protocol: as §1

[7] = A = concentration of comp. = 10,000 μL
[8] = B = concentration of comp. = 30,000 μL
[9] = C = concentration of comp. = 50,000 μL
[10] = A = concentration of comp. = 10,000 μg/mL

## N/C(=N\OC(=O)CSc1nnc(-c2ccc(Cl)cc2)o1)c1ccccc1 [Compound 3, N′-(2-(5-(4-chlorophenyl)-1,3,4-oxadiazol-2-ylthio)acetoxy)benzimidamide]
[1]; [7]
  inhibition zone, Bacillus Cereus: 27 mm
[1]; [8]
  inhibition zone, Bacillus Cereus: 29 mm
[1]; [9]
  inhibition zone, Bacillus Cereus: 40 mm
[2]; [7]
  inhibition zone, Escherichia coli: 22 mm
[2]; [8]
  inhibition zone, Escherichia coli: 33 mm
[2]; [9]
  inhibition zone, Escherichia coli: 46 mm
[3]; [7]
  inhibition zone, Pseudomonas aeruginosa: 25 mm
[3]; [8]
  inhibition zone, Pseudomonas aeruginosa: 29 mm
[3]; [9]
  inhibition zone, Pseudomonas aeruginosa: 50 mm
[4]; [7]
  inhibition zone, Staphylococcus aureus: 38 mm
[4]; [8]
  inhibition zone, Staphylococcus aureus: 42 mm
[4]; [9]
  inhibition zone, Staphylococcus aureus: 52 mm
[5]; [10]
  inhibition zone, Aspergillus flavus: 27 mm
[5]; [8]
  inhibition zone, Aspergillus flavus: 29 mm
[5]; [9]
  inhibition zone, Aspergillus flavus: 38 mm
[6]; [10]
  inhibition zone, Chrysosporium keratinophilum: 24 mm
[6]; [8]
  inhibition zone, Chrysosporium keratinophilum: 29 mm
[6]; [9]
  inhibition zone, Chrysosporium keratinophilum: 50 mm
other
  melting point: ~ 174 °C and 174 °C

## O=C(O)c1cn(C2CC2)c2cc(N3CCNCC3)c(F)cc2c1=O [Cip., ciprofloxacin, reference compound]
[1]; [7]
  inhibition zone, Bacillus Cereus: 29 mm
[1]; [8]
  inhibition zone, Bacillus Cereus: 30 mm
[1]; [9]
  inhibition zone, Bacillus Cereus: 42 mm
[2]; [7]
  inhibition zone, Escherichia coli: 30 mm
[2]; [8]
  inhibition zone, Escherichia coli: 39 mm
[2]; [9]
  inhibition zone, Escherichia coli: 60 mm
[3]; [7]
  inhibition zone, Pseudomonas aeruginosa: 29 mm
[3]; [8]
  inhibition zone, Pseudomonas aeruginosa: 30 mm
[3]; [9]
  inhibition zone, Pseudomonas aeruginosa: 53 mm
[4]; [7]
  inhibition zone, Staphylococcus aureus: 43 mm
[4]; [8]
  inhibition zone, Staphylococcus aureus: 44 mm
[4]; [9]
  inhibition zone, Staphylococcus aureus: 53 mm
[5]; [10]
  inhibition zone, Aspergillus flavus: 29 mm
[5]; [8]
  inhibition zone, Aspergillus flavus: 30 mm
[5]; [9]
  inhibition zone, Aspergillus flavus: 42 mm
[6]; [10]
  inhibition zone, Chrysosporium keratinophilum: 29 mm
[6]; [8]
  inhibition zone, Chrysosporium keratinophilum: 30 mm
[6]; [9]
  inhibition zone, Chrysosporium keratinophilum: 53 mm
